Assay results: patent publication EP4806897A1, “AZA-BRIDGED RING DERIVATIVE” (Chia Tai Tianqing Pharmaceutical Group Co., Ltd., priority 2023, dated 2025)

Assays:
MOLM-13 cells = assay: In vitro cell activity assay (CCK-8 proliferation), MOLM-13; format: cell-based; conditions: Homo sapiens, CCK-8, 72-120 h, read-out: IC50 (nM) for inhibitory activity against proliferation of MOLM-13 cells
Method: (§1) MOLM-13 cells or MV-4-11 cells (source: Nanjing Cobioer Biosciences Co., Ltd.) in a good growth state were taken and seeded into a 96-well plate (100 µL/well) at 2000-10000 cells/well. After the cells were cultured overnight in a cell incubator at 37 °C, the compounds were subjected to gradient dilution and added using a pipettor, with 2 parallel replicate wells in each group. Meanwhile, a control group was set. After the cells were cultured in a cell incubator at 37 °C for another 72-120 h, the detection reagent CCK-8 (manufacturer: Dojindo Laboratories, Japan; 10 µL/well) was added. After the cells were cultured at 37 °C for another 3-5 h, absorbance values were measured at […] using a PerkinElmer Envision multi-functional microplate reader. Four-parameter analysis was performed in GraphPad Prism software to fit dose-response curves and calculate IC50 values. A represents that IC50 < 50 nM. Table 1. Inhibitory activity against cell proliferation

Menin-MLL interaction = biological target: T1, Menin-MLL interaction (Homo sapiens, UniProt O00255); assay: Fluorescence polarization assay of Menin-MLL interaction; conditions: GST-MENIN (1-615 aa) 8 nM, FITC-MLL15-43 8 nM; read-out: IC50 (nM) for inhibitory activity against Menin-MLL protein binding
T1 construct: GST-MENIN (1-615 aa) and FITC-MLL15-43 were diluted with an FP buffer
T1 sequence (O00255 1-615 isoform O00255-1): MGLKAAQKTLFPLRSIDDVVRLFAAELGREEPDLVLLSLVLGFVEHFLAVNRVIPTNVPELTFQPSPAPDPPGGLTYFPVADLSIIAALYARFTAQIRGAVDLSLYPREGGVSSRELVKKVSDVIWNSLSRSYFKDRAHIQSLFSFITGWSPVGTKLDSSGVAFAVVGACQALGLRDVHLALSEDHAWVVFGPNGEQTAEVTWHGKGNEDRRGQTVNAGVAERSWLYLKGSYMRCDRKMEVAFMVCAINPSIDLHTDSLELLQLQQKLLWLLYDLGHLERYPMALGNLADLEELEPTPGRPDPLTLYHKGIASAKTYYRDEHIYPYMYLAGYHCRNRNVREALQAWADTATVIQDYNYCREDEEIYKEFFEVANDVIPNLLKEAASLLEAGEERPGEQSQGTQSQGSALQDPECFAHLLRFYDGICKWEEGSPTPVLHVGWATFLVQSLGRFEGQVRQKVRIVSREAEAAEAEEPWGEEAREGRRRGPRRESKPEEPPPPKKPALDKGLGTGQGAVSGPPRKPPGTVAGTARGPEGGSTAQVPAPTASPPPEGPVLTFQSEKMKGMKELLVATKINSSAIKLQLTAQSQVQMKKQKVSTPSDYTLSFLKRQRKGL
Method: The binding activity of the compounds for the menin protein was determined by a fluorescence polarization assay. GST-MENIN (1-615 aa) and FITC-MLL15-43 were diluted with an FP buffer (50 mM Tris-HCl pH 7.5, 50 mM NaCl, 1 mM DTT, 0.01% BSA), and the mixed solution of GST-MENIN (1-615 aa) at a final concentration of 8 nM and FITC-MLL15-43 at a final concentration of 8 nM was added to a black 384-well microtiter plate at 10 µL/well. The plate was centrifuged at 2500 rpm for 1 min and incubated at room temperature in the dark for 1 h. 5 µL of diluted compound (7 concentration points, 4-fold serial dilution, with blank control and negative control wells set) was added, and the plate was centrifuged at 2500 rpm for 1 min and incubated at room temperature in the dark for 3 h. After incubation, FP (480/535) values were measured using a PerkinElmer Envision multi-functional microplate reader, and the ability of the compounds to inhibit the Menin-MLL interaction was determined by calculating the inhibition rate (%) for each compound concentration according to formula 1; formula 1: inhibition rate (%) = 1 - (Maximum mP Control - mP of administration group)/(Maximum mP Control - minimum mP Control) × 100%. Four-parameter analysis was performed in GraphPad Prism software to fit dose-response curves and calculate IC50 values. A represents that IC50 < 50 nM. Table 2. Inhibitory activity against Menin-MLL protein binding

MV-4-11 cells = assay: In vitro cell activity assay (CCK-8 proliferation), MV-4-11; format: cell-based; conditions: Homo sapiens, MV4-11; CCK-8, 72-120 h; read-out: IC50 (nM) for inhibitory activity against proliferation of MV-4-11 cells
Method: as §1

[1] = In vitro liver microsomal stability, mouse; conditions: mouse liver microsomes 0.5 mg/mL, compound 1 µM, 37 °C
Method: (§2) Liver microsome incubation samples were prepared by mixing a PBS buffer (pH 7.4), a liver microsome solution from various species (human, mouse, monkey, dog, and rat) (0.5 mg/mL), a test compound (final concentration: 1 µM), and an NADPH + MgCl2 solution, followed by incubation at 37 °C and 300 rpm. Samples were collected from the reaction solution at the time points of 15 min and 60 min. Zero-hour samples were prepared by mixing a PBS buffer (pH 7.4), a liver microsome solution (0.5 mg/mL), and a test compound. An acetonitrile solution containing an internal standard was added to the samples, and supernatants were prepared by protein precipitation, diluted, and then assayed by LC-MS/MS.

[2] = In vitro liver microsomal stability, human; conditions: human liver microsomes 0.5 mg/mL, compound 1 µM, 37 °C
Method: as §2

| SMILES | IC50 (MOLM-13 cells) [nM] | IC50 (Menin-MLL interaction) [nM] | IC50 (MV-4-11 cells) [nM] | Residuals at 60 min (%) [1] [%] | Residuals at 60 min (%) [2] [%] |
| --- | --- | --- | --- | --- | --- |
| C=C1C[C@@H]2CC[C@H]1[C@@H](C(=O)N1CCC3(CC1)CN(c1ncncc1Oc1ccc(F)cc1C(=O)N(CC)C(C)C)C3)N2 [Compound 2] | < 50 | < 50 | < 50 | – | – |
| C=C1C[C@@H]2CC[C@H]1[C@@H](C(=O)N1CCC3(CC1)CN(c1ncncc1Oc1ccc(F)cc1-c1cccnc1C1CC1)C3)N2 [Compound 3] | < 50 | < 50 | < 50 | – | – |
| C=C1C[C@@H]2CC[C@H]1[C@@H](C(=O)N1CCC3(CC1)CN(c1ncncc1Oc1ccc(F)cc1-c1ccnn1C(C)C)C3)N2 [Compound 4] | < 50 | < 50 | < 50 | – | – |
| C=C1CC2CCC1C(C(=O)N1CCC3(CC1)CN(c1ncncc1Oc1ccc(F)cc1C(=O)N(C)C(C)C)C3)N2 (stereo not shown) [Compound 6] | – | – | < 50 | – | – |
| C=C1C[C@@H]2CC[C@H]1[C@@H](C(=O)N1CCC3(CC1)CN(c1ncnnc1Oc1ccc(F)cc1C(=O)N(CC)C(C)C)C3)N2 [Compound 27] | < 50 | < 50 | < 50 | >60 | >40 |
| C=C1C[C@@H]2CC[C@H]1[C@@H](C(=O)N1CCC3(CC1)CN(c1ncnnc1Oc1ccc(F)cc1-c1cccnc1C1CC1)C3)N2 [Compound 31] | < 50 | < 50 | < 50 | – | – |
| C=C1C[C@@H]2CC[C@H]1[C@@H](C(=O)N1CCC3(CC1)CN(c1ncnnc1Oc1ccc(F)cc1-c1ccnn1C(C)C)C3)N2 [Compound 32] | – | < 50 | < 50 | – | – |
| C=C1C[C@@H]2CC[C@H]1[C@@H](C(=O)N1CCC3(CC1)CN(c1ncnnc1Oc1ccc(F)cc1-c1cncnc1C1CC1)C3)N2 [Compound 33] | – | < 50 | < 50 | >60 | – |
| C=C1CC2CCC1C(C(=O)N1CCC3(CC1)CN(c1ncnnc1Oc1ccc(F)cc1-c1cccnc1OC)C3)N2 (stereo not shown) [Compound 34] | – | – | < 50 | – | – |
| C=C1C[C@@H]2CC[C@H]1[C@@H](C(=O)N1CCC3(CC1)CN(c1ccnnc1Oc1ccc(F)cc1-c1cccnc1C1CC1)C3)N2 [Compound 35] | < 50 | < 50 | < 50 | – | – |
| C=C1C[C@@H]2CC[C@H]1[C@@H](C(=O)N1CCC3(CC1)CN(c1ccnnc1Oc1ccc(F)cc1C(=O)N(CC)C(C)C)C3)N2 [Compound 36] | < 50 | < 50 | < 50 | – | – |
| C=C1C[C@@H]2CC[C@H]1[C@@H](C(=O)N1CCC3(CC1)CN(c1ncnnc1Oc1ccc(F)cc1C(=O)N1C(C)CCCC1C)C3)N2 (stereo partly shown) [Compound 46] | – | < 50 | < 50 | – | – |
| C=C1C[C@@H]2CC[C@H]1[C@@H](C(=O)N1CCC3(CC1)CN(c1ncnnc1Oc1ccc(F)cc1-c1cnccc1OC)C3)N2 [Compound 48] | – | < 50 | – | >60 | >40 |
| C=C1C[C@@H]2CC[C@H]1[C@@H](C(=O)N1CCC3(CC1)CN(c1ncnnc1Oc1ccc(F)cc1C(=O)N(C(C)C)C(C)C)C3)N2 [Compound 50] | < 50 | < 50 | < 50 | – | – |
| C=C1C[C@@H]2CC[C@H]1[C@@H](C(=O)N1CCC3(CC1)CN(c1ncnnc1Oc1ccc(F)cc1-c1cc(C(F)(F)F)cnc1C1CC1)C3)N2 [Compound 54] | < 50 | < 50 | < 50 | – | – |
| C=C1C[C@@H]2CC[C@H]1[C@@H](C(=O)N1CC3(C1)CN(c1ncnnc1Oc1ccc(F)cc1C(=O)N(CC)C(C)C)C3)N2 [Compound 56] | < 50 | < 50 | < 50 | – | >40 |
| C=C1CC2CCC1C(C(=O)N1CCC3(CC1)CN(c1ncnnc1Oc1c(F)cc(F)cc1-c1cccnc1C1CC1)C3)N2 (stereo not shown) [Compound 58] | – | – | < 50 | – | – |
| C=C1C[C@@H]2CC[C@H]1[C@@H](C(=O)N1CCC3(CC1)CN(c1ncnnc1Oc1ccc(F)cc1-c1ccc(O)nc1C1CC1)C3)N2 [Compound 64] | – | < 50 | < 50 | >60 | >40 |
| C=C1CC2CCC1C(C(=O)N1CCC3(CC1)CN(c1ncnnc1Oc1ccc(F)cc1-c1nccn1C(C)C)C3)N2 (stereo not shown) [Compound 65] | – | – | < 50 | – | – |
| C=C1CC2CCC1C(C(=O)N1CCC3(CC1)CN(c1ncnnc1Oc1ccc(F)cc1-c1nccnc1C1CC1)C3)N2 (stereo not shown) [Compound 66] | – | – | < 50 | – | – |
| C=C1C[C@@H]2CC[C@H]1[C@@H](C(=O)N1CC3(C1)CN(c1ncnnc1Oc1ccc(F)cc1-c1cccnc1C1CC1)C3)N2 [Compound 67] | < 50 | < 50 | < 50 | – | – |
| C=C1CC2CCC1C(C(=O)N1CCC3(CC1)CN(c1ncnnc1Oc1ccc(F)cc1-c1ccnn1C1CC1)C3)N2 (stereo not shown) [Compound 70] | – | – | < 50 | – | – |
| C=C1C[C@@H]2CC[C@H]1[C@@H](C(=O)N1CC3(C1)CN(c1ncnnc1Oc1ccc(F)cc1-c1ccnn1C(C)C)C3)N2 [Compound 71] | < 50 | < 50 | < 50 | – | – |
| C=C1C[C@@H]2CC[C@H]1[C@@H](C(=O)N1CC3(C1)CN(c1ncnnc1Oc1ccc(F)cc1-c1cncnc1C1CC1)C3)N2 [Compound 73] | < 50 | < 50 | < 50 | >60 | – |
| C=C1C[C@@H]2CC[C@H]1[C@@H](C(=O)N1CCC3(CC1)CN(c1ncnnc1Oc1ccc(F)cc1-c1ccnnc1C1CC1)C3)N2 [Compound 74] | < 50 | < 50 | < 50 | – | – |
| C=C1CC2CCC1C(C(=O)N1CCCC3(CC1)CN(c1ncncc1Oc1ccc(F)cc1-c1cccnc1C1CC1)C3)N2 (stereo not shown) [Compound 76] | < 50 | – | < 50 | – | – |
| C=C1CC2CCC1C(C(=O)N1CCCC3(CC1)CN(c1ncncc1Oc1ccc(F)cc1-c1cncnc1C1CC1)C3)N2 (stereo not shown) [Compound 77] | < 50 | – | < 50 | – | – |
